# In patent US8574831B2, “Mutational profiles in HIV-1 reverse transcriptase correlated with phenotypic drug resistance” (Virco N.V., priority 2000, dated 2013):
# Tested on: HIV with mutations in the HIV protease sequence
# Assay: Phenotypic fold resistance to protease inhibitors, protease mutations 84A/84L/84C/54M/54L/54V in a background (Examples 8-13)
# Assay type: cell-based, HIV-1
# Protocol: As is the case with the genotyping assays, the recombinant virus assay starts with the amplification of viral target sequences by means of PCR. The amplicons are incorporated into a proviral laboratory clone with sequences homologous to those present in the amplicon deleted. This generates a stock of chimeric viruses. The viruses are tested for their ability to grow in the presence of different concentrations of drugs. Results are obtained by calculating IC50 values for each inhibitor and by reporting the results as IC50 values, expressed in μM concentrations, or by computing the ratio of the IC50 values found for the chimeric virus to the IC50 values found for a wild type susceptible laboratory virus tested in parallel. In the latter case, resistance is expressed as “fold-resistance” compared to a wild-type susceptible HIV-1 strain. In order to meet the need for high-volume testing and a short turn-around time for an individual test, the latest generation of phenotyping assays has undergone further modifications. The use of reporter gene systems for susceptibility testing allows the implementation of laboratory automation and standardization. See Pauwels, et al., J. Virol. Methods 20, 309-321 (1998); Paulous, S., et al., International Workshop on HIV Drug Resistance, Treatment Strategies and Eradication, St. Petersburg, Fla., USA. Abstr. 46 (1997); and Deeks, S. G., et al., 2nd International Workshop on HIV Drug Resistance and Treatment Strategies, Lake Maggiore, Italy. Abstr. 53 (1998).
# The ANTIVIROGRAM® assay (Virco) (WO 97/27480) is based on homologous recombination of patient derived HIV-1 gag/PR/RT sequences into a proviral HIV-1 clone correspondingly deleted for the gag/PR/RT sequences. See Pauwels, et al., J. Virol. Methods 20, 309-321 (1998). A similar assay (Phenosense ViroLogic) is based on enzymatic ligation of patient-derived PR/RT sequences into a correspondingly deleted proviral vector carrying an indicator gene, luciferase, inserted in the deleted HIV-1 envelope gene. See Deeks, S. G., et al., 2nd International Workshop on HIV Drug Resistance and Treatment Strategies, Lake Maggiore, Italy. Abstr. 53 (1998). Hertogs et al. Antimicrob. Agents Chemother. 44(3) 568-573 (2000) the disclosures of which are herein incorporated by reference.
# The methods of monitoring HIV-1 drug resistance, may also be used in combination with phenotypic drug resistance testing of viral isolates. For example, in one embodiment, a phenotypic test is utilized that is based upon the construction of chimeric HIV-1 strains composed of the protease (PR) and reverse transcriptase (RT) gene sequences which are isolated and amplified from the patient viral RNA. These strains may subsequently be recombined inside CD4+ T cells with a standard laboratory isogenic (HXB2) HIV-1 DNA construct from which the PR/RT gene sequences were deleted. The recombinant strains may then be grown in the presence of the above-mentioned antiviral drugs and the susceptibility of the viral isolates may be expressed as fold-change value of the IC50 of the drug on the patient isolates over the IC50 of the drug on a wild-type laboratory reference strain.
compound,measurement,setting,value
"Cc1c(O)cccc1C(=O)N[C@@H](CSc1ccccc1)[C@H](O)CN1C[C@H]2CCCC[C@H]2C[C@H]1C(=O)NC(C)(C)C [Nelfinavir, nelfinavir]",Fold change in IC50,"Table 12, V055199, genotype 10I + 33F + 54M + 90M",11.7 fold
same,Fold change in IC50,"Table 13, V19263, genotype 77I",0.9 fold
same,Fold change in IC50,"Table 13, V20160, genotype WT",0.7 fold
same,Fold change in IC50,"Table 13, V021667, genotype 10I",1.0 fold
same,Fold change in IC50,"Table 13, V030496, genotype 10I + 77I",0.7 fold
same,Fold change in IC50,"Table 13, V048868, genotype 10I + 54L + 71V + 77I + 90M",15.6 fold
same,Fold change in IC50,"Table 13, V048874, genotype 10I + 33F + 54L + 71V + 77I + 90M",14.5 fold
same,Fold change in IC50,"Table 13, V048875, genotype 10I + 33F + 54L + 71V + 77I + 90M",12.5 fold
same,Fold change in IC50,"Table 13, V048877, genotype 10I + 33F + 77I + 90M",9.4 fold
same,Fold change in IC50,"Table 13, V048880, genotype 10I + 33F + 77I + 90M",4.9 fold
same,Fold change in IC50,"Table 13, V052940, genotype 71V",0.6 fold
same,Fold change in IC50,"Table 13, V052942, genotype 10I + 71V",0.9 fold
same,Fold change in IC50,"Table 13, V052943, genotype 10I + 90M",2.2 fold
same,Fold change in IC50,"Table 13, V052944, genotype 10I + 90M",1.4 fold
same,Fold change in IC50,"Table 13, V052945, genotype 77I + 90M",3.0 fold
same,Fold change in IC50,"Table 13, V052946, genotype 71V + 90M",3.0 fold
same,Fold change in IC50,"Table 13, V052947, genotype 10I + 77I + 90M",8.2 fold
same,Fold change in IC50,"Table 13, V052948, genotype 10I + 71V + 90M",9.0 fold
same,Fold change in IC50,"Table 13, V052949, genotype 10I + 71V + 77I + 90M",8.6 fold
same,Fold change in IC50,"Table 13, V052950, genotype 33F",1.0 fold
same,Fold change in IC50,"Table 13, V052951, genotype 33F + 77I",5.2 fold
same,Fold change in IC50,"Table 13, V052953, genotype 10I + 33F + 77I",0.9 fold
same,Fold change in IC50,"Table 13, V052954, genotype 33F + 77I + 90M",5.9 fold
same,Fold change in IC50,"Table 13, V052955, genotype 33F + 71V + 90M",36.6 fold
same,Fold change in IC50,"Table 13, V052968, genotype 10L/I + 33F/L + 54L + 77I",3.5 fold
same,Fold change in IC50,"Table 13, V052969, genotype 10I + 33F + 54L + 90M",3.4 fold
same,Fold change in IC50,"Table 13, V052970, genotype 54L",1.6 fold
same,Fold change in IC50,"Table 13, V052971, genotype 10I + 54L",1.0 fold
same,Fold change in IC50,"Table 13, V052972, genotype 54L + 77I",3.0 fold
same,Fold change in IC50,"Table 13, V052973, genotype 10I + 54L + 77I",2.8 fold
same,Fold change in IC50,"Table 13, V052974, genotype 10I + 54L + 90M",2.6 fold
same,Fold change in IC50,"Table 13, V052975, genotype 10I + 54L + 71V + 90M",41.3 fold
same,Fold change in IC50,"Table 13, V052976, genotype 10I + 54L + 71V + 77I + 90M",8.9 fold
same,Fold change in IC50,"Table 13, V053832, genotype 10I + 33F",1.6 fold
same,Fold change in IC50,"Table 13, V053854, genotype 54L + 71V",5.9 fold
same,Fold change in IC50,"Virco ID 214846, genotype 10I + 33F + 54V + 71V + 77I + 90M, vs mean IC50 of wild type laboratory HIV strain",43.5 fold
same,Fold change in IC50,"Virco ID V021667, genotype 10I, vs mean IC50 of wild type laboratory HIV strain",1.0 fold
same,Fold change in IC50,"Virco ID V030496, genotype 10I + 77I, vs mean IC50 of wild type laboratory HIV strain",0.7 fold
same,Fold change in IC50,"Virco ID V048876, genotype 33F + 54V + 77I + 90M, vs mean IC50 of wild type laboratory HIV strain",1.6 fold
same,Fold change in IC50,"Virco ID V048877, genotype 10I + 33F + 77I + 90M, vs mean IC50 of wild type laboratory HIV strain",9.4 fold
same,Fold change in IC50,"Virco ID V048880, genotype 10I + 33F + 77I + 90M, vs mean IC50 of wild type laboratory HIV strain",4.9 fold
same,Fold change in IC50,"Virco ID V052940, genotype 71V, vs mean IC50 of wild type laboratory HIV strain",0.6 fold
same,Fold change in IC50,"Virco ID V052942, genotype 10I + 71V, vs mean IC50 of wild type laboratory HIV strain",0.9 fold
same,Fold change in IC50,"Virco ID V052943, genotype 10I + 90M, vs mean IC50 of wild type laboratory HIV strain",2.2 fold
same,Fold change in IC50,"Virco ID V052944, genotype 10I + 90M, vs mean IC50 of wild type laboratory HIV strain",1.4 fold
same,Fold change in IC50,"Virco ID V052946, genotype 71V + 90M, vs mean IC50 of wild type laboratory HIV strain",3.0 fold
same,Fold change in IC50,"Virco ID V052947, genotype 10I + 77I + 90M, vs mean IC50 of wild type laboratory HIV strain",8.2 fold
same,Fold change in IC50,"Virco ID V052948, genotype 10I + 71V + 90M, vs mean IC50 of wild type laboratory HIV strain",9.0 fold
same,Fold change in IC50,"Virco ID V052949, genotype 10I + 71V + 77I + 90M, vs mean IC50 of wild type laboratory HIV strain",8.6 fold
same,Fold change in IC50,"Virco ID V052950, genotype 33F, vs mean IC50 of wild type laboratory HIV strain",1.0 fold
same,Fold change in IC50,"Virco ID V052951, genotype 33F + 77I, vs mean IC50 of wild type laboratory HIV strain",5.2 fold
same,Fold change in IC50,"Virco ID V052953, genotype 10I + 33F + 77I, vs mean IC50 of wild type laboratory HIV strain",0.9 fold
same,Fold change in IC50,"Virco ID V052954, genotype 33F + 77I + 90M, vs mean IC50 of wild type laboratory HIV strain",5.9 fold
same,Fold change in IC50,"Virco ID V052955, genotype 33F + 71V + 90M, vs mean IC50 of wild type laboratory HIV strain",36.6 fold
same,Fold change in IC50,"Virco ID V052957, genotype 10I + 33F + 54V + 90M, vs mean IC50 of wild type laboratory HIV strain",6.9 fold
same,Fold change in IC50,"Virco ID V052958, genotype 10I + 33F + 54V + 77I + 90M, vs mean IC50 of wild type laboratory HIV strain",4.8 fold
same,Fold change in IC50,"Virco ID V052959, genotype 10I + 33F + 54V + 77I + 90M, vs mean IC50 of wild type laboratory HIV strain",7.5 fold
same,Fold change in IC50,"Virco ID V052960, genotype 10I + 33F + 54V + 71V + 90M, vs mean IC50 of wild type laboratory HIV strain",40.7 fold
same,Fold change in IC50,"Virco ID V052961, genotype 54V, vs mean IC50 of wild type laboratory HIV strain",1.0 fold
same,Fold change in IC50,"Virco ID V052962, genotype 10I + 54V, vs mean IC50 of wild type laboratory HIV strain",0.6 fold
same,Fold change in IC50,"Virco ID V052963, genotype 54V + 77I + 90M, vs mean IC50 of wild type laboratory HIV strain",3.2 fold
same,Fold change in IC50,"Virco ID V052964, genotype 54V + 71V + 90M, vs mean IC50 of wild type laboratory HIV strain",3.3 fold
same,Fold change in IC50,"Virco ID V052965, genotype 10I + 54V + 77I + 90M, vs mean IC50 of wild type laboratory HIV strain",15.1 fold
same,Fold change in IC50,"Virco ID V052966, genotype 10I + 54V + 71V + 90M, vs mean IC50 of wild type laboratory HIV strain",55.4 fold
same,Fold change in IC50,"Virco ID V052967, genotype 10I + 54V + 71V + 77I + 90M, vs mean IC50 of wild type laboratory HIV strain",0.8 fold
same,Fold change in IC50,"Virco ID V053358, genotype 33F + 54V + 77I + 90M, vs mean IC50 of wild type laboratory HIV strain",2.1 fold
same,Fold change in IC50,"Virco ID V053831, genotype 33F + 54V, vs mean IC50 of wild type laboratory HIV strain",5.9 fold
same,Fold change in IC50,"Virco ID V053832, genotype 10I + 33F, vs mean IC50 of wild type laboratory HIV strain",1.6 fold
